Test results as given in patent US6939554B2, “Antimicrobial polymer” (Michigan Biotechnology Institute, priority 2002, dated 2005).

Tested on: potential human pathogenic microorganisms
Assay: Antimicrobial activity assay, overall assessment across target microorganisms
Format: cell-based
Conditions: among the seven antimicrobials tested, in the polymer coatings
Description: The selection of target microorganisms for examining the antimicrobial activity of the coated polydimethylsiloxane substrates produced in the Control Example and Examples 1-16 was based on the potential human pathogenic microorganisms, which include gram positive bacteria, Bacillus subtilis and Staphylococcus aureus; gram negative bacteria, E. coli and Pseudomonas aeruginosa; and yeast, Candida albicans. Broth cultures were prepared for each microorganism. Bacteria, Bacillus subtilis, Staphylococcus aureus, E. coli and Pseudomonas aeruginosa were grown in 50 milliliters of sterile tryptic soy broth in a 500 milliliter baffle flask at 200 rpm. The cultures were grown at 37° C. overnight, and used for antimicrobial activity assay plates and stock culture. The yeast, Candida albicans was cultivated in 50 milliliters of sterile yeast malt broth in a 250 milliliter baffle flask at 25-28° C. for 1 day and used for the activity assay plates and stock culture.
Antimicrobial activity assay plates were then prepared. Yeast malt agar and tryptic soy agar were autoclaved for 20 minutes. The sterile molten agar was allowed to cool to 42-45° C. The prepared broth cultures of the target microorganisms were inoculated to a final concentration of 5% (v/v). […]

Structure (SMILES): [H]/N=C(\N/C(=N/[H])NCCCCCCNC(=N)NC(=N)Nc1ccc(Cl)cc1)Nc1ccc(Cl)cc1 [chlorhexidine, 1,6-bi(N^5-p-chlorophenyl-N^1-biguanido)hexane]
- Antimicrobial activity: ability to suppress the colonization and spectrum of action (in words): high activity
